Measured values as given in patent US20260256790A1, “DEBIO-0123 IN COMBINATION WITH TEMOZOLOMIDE AND RADIOTHERAPY FOR USE IN TREATING GLIOMA” (Debiopharm International S.A., priority 2023, published 2026).

Tested on: U87-MG-luc GBM cell line
Experiment: U87-MG-luc tumors implanted intracranially in mice, combination with temozolomide
Format: in vivo
Conditions: 28 day cycle
Method: Male athymic nude mice were injected into the cerebellum with 1×10^5 U87-MG-luc cells in Matrigel. Animals were imaged to monitor tumor establishment and growth throughout the study using an In Vivo Imaging System (IVIS) once weekly, detecting tumor bioluminescence (BLI) in photons. Once tumor establishment was confirmed, animals were randomly allocated into 8 treatment groups: vehicle (0.5% methycellulose, 1% Tween 80 P.O. and saline IV.), Compound of formula (I) [CoF (I)](formulated as a suspension in 0.5% methycellulose and 1% Tween 80) administered orally at 3 mg/kg, at 10 mg/kg or at 30 mg/kg once daily (QD) in monotherapy, temolozomide [TMZ] administered orally at 3 mg/kg once daily (QD) in monotherapy, over a 28 day cycle, and combination of TMZ+compound of formula (I) at each dose) (n=6 animals per group for monotherapy groups and n=8 animals per group for combination groups). In combination arms, Compound of formula (I) and was administered 2 hours prior to TMZ. During routine monitoring, the animals were checked for any effects of tumor growth and treatments on behavior such as mobility, food and water consumption, body weight gain/loss 3 times a week, eye/hair matting and any other abnormalities. Mortality and observed clinical signs were recorded for individual animals in detail.

## Cc1cc(Nc2ncc3c(n2)N(C)CN(c2c(Cl)cccc2Cl)C3=O)ccc1C1CCN(C)CC1 [Compound of formula (I)]
Monotherapy 3 mg/kg oral QD
  Anti-tumor activity (mean relative BLI) vs vehicle: did not result in any significant anti-tumor activity
Monotherapy 10 mg/kg oral QD
  Anti-tumor activity (mean relative BLI) vs vehicle: did not result in any significant anti-tumor activity
Monotherapy 30 mg/kg oral QD, p=0.0133 on day 36
  Anti-tumor activity (mean relative BLI) vs vehicle: significantly smaller tumors than vehicle controls
